According to patent publication US20230183219A1, “CONDENSED SUBSTITUTED HYDROPYRROLES AS ANTAGONISTS OF THE MUSCARINIC ACETYLCHOLINE RECEPTOR M4” (Vanderbilt University, priority 2020, published 2023):

Target: T1, Human M4 (Homo sapiens, UniProt P08173)
T1 construct: Human or rat M4 cDNA, along with the chimeric G protein Gqi5, were transfected into Chinese hamster ovary (CHO-K1) cells; expressed in transfected cells; host or cells: CHO-K1 (Chinese hamster ovary, ATCC), stably co-expressing Gqi5
T1 sequence (P08173 1-479): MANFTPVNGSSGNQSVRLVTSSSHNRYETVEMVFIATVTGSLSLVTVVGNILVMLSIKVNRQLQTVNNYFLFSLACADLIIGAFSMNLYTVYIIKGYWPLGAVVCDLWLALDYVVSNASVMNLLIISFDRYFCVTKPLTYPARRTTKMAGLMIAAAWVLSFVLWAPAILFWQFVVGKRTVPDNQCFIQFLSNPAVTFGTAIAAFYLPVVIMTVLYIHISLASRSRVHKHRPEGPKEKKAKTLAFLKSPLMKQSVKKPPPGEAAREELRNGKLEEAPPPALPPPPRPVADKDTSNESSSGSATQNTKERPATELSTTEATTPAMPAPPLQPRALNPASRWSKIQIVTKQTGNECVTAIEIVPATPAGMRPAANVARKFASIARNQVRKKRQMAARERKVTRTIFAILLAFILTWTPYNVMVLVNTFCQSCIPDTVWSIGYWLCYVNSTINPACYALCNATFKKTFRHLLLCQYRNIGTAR
Test: mAChR M4 cell-based functional assay (calcium flux, decrease of EC80 acetylcholine response)
Settings: for remaining activity at 30 µM: % ACh maximum at 30 μM, read-out: Human M4 Emin; for IC50: M4/Gqi5/CHO-K1 cells, decrease of response to EC80 acetylcholine
Protocol: Human or rat M4 cDNA, along with the chimeric G protein Gqi5, were transfected into Chinese hamster ovary (CHO-K1) cells purchased from the American Type Culture Collection using Lipofectamine2000. M4/Gqi5/CHO cells were grown in Ham's F-12 medium containing 10% heat-inactivated fetal bovine serum (FBS), 20 mM HEPES, 500 μg/mL G418 sulfate, and 200 μg/mL Hygromycin B.
For high throughput measurement of agonist-evoked increases in intracellular calcium, CHO-K1 cells stably expressing muscarinic receptors were plated in growth medium lacking G418 and hygromycin at 15,000 cells/20 μL/well in Greiner 384-well black-walled, tissue culture (TC)-treated, clear-bottom plates (VWR). Cells were incubated overnight at 37° C. and 5% CO2. The next day, cells were washed using an ELX 405 (BioTek) with assay buffer; the final volume was then aspirated to 20 μL. Next, 20 μL of a 2.3 μM stock of Fluo-4/acetoxymethyl ester (Invitrogen, Carlsbad, Calif.), prepared as a 2.3 mM stock in DMSO and mixed in a 1:1 ratio with 10% (w/v) Pluronic F-127 and diluted in assay buffer, was added to the wells and the cell plates were incubated for 50 min at 37° C. and 5% CO2. Dye was removed by washing with the ELX 405 and the final volume was aspirated to 20 μL. Compound master plates were formatted in a 10 point concentration-response curve (CRC) format (1:3 dilutions) in 100% DMSO with a starting concentration of 10 or 1 mM using a BRAVO liquid handler (Agilent). Test compound CRCs were then transferred to daughter plates (240 nL) using the Echo acoustic plate reformatter (Labcyte, Sunnyvale, Calif.) and then diluted into assay buffer (40 μL) to a 2×stock using a Thermo Fisher Combi (Thermo Fisher Scientific, Waltham, Mass.).
Calcium flux was measured using the Functional Drug Screening System (FDSS) 6000 or 7000 (Hamamatsu Corporation, Tokyo, Japan) as an increase in the fluorescent static ratio. Compounds were applied to cells (20 μL, 2×) using the automated system of the FDSS at 2 seconds into the protocol and the data were collected at 1 Hz. At 143 s, 10 μL of an EC20 concentration of the muscarinic receptor agonist acetylcholine was added (5×), followed by the addition of 12 μL of an EC80 concentration of acetylcholine at the 268 s time point (5×). Agonist activity was analyzed as a concentration-dependent increase in calcium mobilization upon compound addition. Positive allosteric modulator activity was analyzed as a concentration-dependent increase in the EC20 acetylcholine response. Antagonist activity was analyzed as a concentration-dependent decrease in the EC80 acetylcholine response; for the purposes of the tables herein, an IC50 (inhibitory concentration 50) was calculated as a concentration-dependent decrease of the response elicited by an EC80 concentration of acetylcholine. Concentration-response curves were generated using a four-parameter logistical equation in XLFit curve fitting software (IDBS, Bridgewater, N.J.) for Excel (Microsoft, Redmond, Wash.) or Prism (GraphPad Software, Inc., San Diego, Calif.) or the Dotmatics software platform (Dotmatics, Bishop's Stortford, UK).
Compounds were synthesized as described above. Activity (IC50 and Emin) was determined in the mAChR M4 cell-based functional assay as described above and the data are shown in Table 2.

Compound	remaining activity at 30 µM [%]	IC50 [nM]
[2H]C([2H])(C1CCOCC1)N1C[C@H]2C[C@H](Nc3nnc(-c4cc(F)ccc4C)cc3C(F)(F)F)C[C@H]2C1 [Example 17, (3aR,5s,6aS)-N-(6-(5-fluoro-2-methylphenyl)-4-(trifluoro-methyl)pyridazin-3-yl)-2-((tetrahydro-2H-pyran-4-yl)methyl-d2)octahydro-cyclopenta[c]pyrrol-5-amine]	3	11.3
[2H]C([2H])(C1CCOCC1)N1C[C@H]2C[C@H](Nc3nnc(-c4ccc5nn(C)cc5c4)cc3C(F)(F)F)C[C@H]2C1 [Example 18, (3aR,5s,6aS)-N-(6-(2-methyl-2H-indazol-5-yl)-4-(trifluoro-methyl)pyridazin-3-yl)-2-((tetrahydro-2H-pyran-4-yl)methyl-d2)octahydro-cyclopenta[c]pyrrol-5-amine]	3	29.8
Cc1ccc(F)cc1-c1cc(C(F)(F)F)c(N[C@H]2C[C@@H]3CN(CC4COCCO4)C[C@@H]3C2)nn1 (stereo partly drawn) [Example 19, (3aR,5s,6aS)-2-((1,4-dioxan-2-yl)methyl)-N-(6-(5-fluoro-2-methylphenyl)-4-(trifluoromethyl)pyridazin-3-yl)octahydro-cyclopenta[c]pyrrol-5-amine]	2	4.5
Cn1cc2cc(-c3cc(C(F)(F)F)c(N[C@H]4C[C@@H]5CN(CC6COCCO6)C[C@@H]5C4)nn3)ccc2n1 (stereo partly drawn) [Example 20, (3aR,5s,6aS)-2-((1,4-dioxan-2-yl)methyl)-N-(6-(2-methyl-2H-indazol-5-yl)-4-(trifluoromethyl)pyridazin-3-yl)octahydro-cyclopenta[c]pyrrol-5-amine]	3	25.1
Cc1ccc(F)cc1-c1cc(C(F)(F)F)c(N[C@H]2C[C@@H]3CN(C[C@@H]4COCCO4)C[C@@H]3C2)nn1 [Example 21, (3aR,5s,6aS)-2-(((R)-1,4-dioxan-2-yl)methyl)-N-(6-(5-fluoro-2-methylphenyl)-4-(trifluoromethyl)pyridazin-3-yl)octahydro-cyclopenta[c]pyrrol-5-amine]	3	31.2
Cc1ccc(F)cc1-c1cc(C(F)(F)F)c(N[C@H]2C[C@@H]3CN(C[C@H]4COCCO4)C[C@@H]3C2)nn1 [Example 22, (3aR,5s,6aS)-2-(((S)-1,4-dioxan-2-yl)methyl)-N-(6-(5-fluoro-2-methylphenyl)-4-(trifluoromethyl)pyridazin-3-yl)octahydro-cyclopenta[c]pyrrol-5-amine]	3	2.7
Cc1ccc(F)cc1-c1cc(C(F)(F)F)c(N[C@H]2C[C@@H]3CN(CC4(F)CCOCC4)C[C@@H]3C2)nn1 [Example 23, (3aR,5s,6aS)-N-(6-(5-fluoro-2-methylphenyl)-4-(trifluoromethyl)pyridazin-3-yl)-2-((4-fluorotetrahydro-2H-pyran-4-yl)methyl)octahydro-cyclopenta[c]pyrrol-5-amine]	3	23.7
Cc1ccc(F)cc1-c1cc(C(F)(F)F)c(N[C@H]2C[C@@H]3CN(C[C@@H]4CC5CCC4O5)C[C@@H]3C2)nn1 (stereo partly drawn) [Example 24, (3aR,5s,6aS)-2-(((2S)-7-oxabicyclo[2.2.1]heptan-2-yl)methyl)-N-(6-(5-fluoro-2-methylphenyl)-4-(trifluoromethyl)pyridazin-3-yl)octahydro-cyclopenta[c]pyrrol-5-amine]	3	7
Cc1ccc(F)cc1-c1cc(C(F)(F)F)c(N[C@H]2C[C@@H]3CN(C[C@H]4CC5CCC4O5)C[C@@H]3C2)nn1 (stereo partly drawn) [Example 25, (3aR,5s,6aS)-2-(((2R)-7-oxabicyclo[2.2.1]heptan-2-yl)methyl)-N-(6-(5-fluoro-2-methylphenyl)-4-(trifluoromethyl)pyridazin-3-yl)octahydro-cyclopenta[c]pyrrol-5-amine]	2	11.1
Cn1cc2cc(-c3cc(C(F)(F)F)c(N[C@H]4C[C@@H]5CN(C[C@@H]6CC7CCC6O7)C[C@@H]5C4)nn3)ccc2n1 (stereo partly drawn) [Example 26, (3aR,5s,6aS)-2-(((2S)-7-oxabicyclo[2.2.1]heptan-2-yl)methyl)-N-(6-(2-methyl-2H-indazol-5-yl)-4-(trifluoromethyl)pyridazin-3-yl)octahydro-cyclopenta[c]pyrrol-5-amine]	4	19.4
Cn1cc2cc(-c3cc(C(F)(F)F)c(N[C@H]4C[C@@H]5CN(C[C@H]6CC7CCC6O7)C[C@@H]5C4)nn3)ccc2n1 (stereo partly drawn) [Example 27, (3aR,5s,6aS)-2-(((2R)-7-oxabicyclo[2.2.1]heptan-2-yl)methyl)-N-(6-(2-methyl-2H-indazol-5-yl)-4-(trifluoromethyl)pyridazin-3-yl)octahydro-cyclopenta[c]pyrrol-5-amine]	3	74.3
Cc1ccc(F)cc1-c1cc(C(F)(F)F)c(N[C@H]2C[C@@H]3CN(CC4CCCOC4)C[C@@H]3C2)nn1 (stereo partly drawn) [Example 28, (3aR,5s,6aS)-N-(6-(5-fluoro-2-methylphenyl)-4-(trifluoromethyl)pyridazin-3-yl)-2-((tetrahydro-2H-pyran-3-yl)methyl)octahydro-cyclopenta[c]pyrrol-5-amine]	4	9.5
Cc1ccc(F)cc1-c1cc(C(F)(F)F)c(N[C@H]2C[C@@H]3CN(CC4COCC4C)C[C@@H]3C2)nn1 (stereo partly drawn) [Example 29, (3aR,5s,6aS)-N-(6-(5-fluoro-2-methylphenyl)-4-(trifluoromethyl)pyridazin-3-yl)-2-((4-methyltetrahydro-furan-3-yl)methyl)octahydro-cyclopenta[c]pyrrol-5-amine]	5	52.3
Cc1ccc(F)cc1-c1cc(C(F)(F)F)c(N[C@H]2C[C@@H]3CN(C[C@@H]4CCOC4)C[C@@H]3C2)nn1 [Example 30, (3aR,5s,6aS)-N-(6-(5-fluoro-2-methylphenyl)-4-(trifluoromethyl)pyridazin-3-yl)-2-(((S)-tetrahydrofuran-3-yl)methyl)octahydro-cyclopenta[c]pyrrol-5-amine]	4	55.6
Cc1ccc(F)cc1-c1cc(C(F)(F)F)c(N[C@H]2C[C@@H]3CN(C[C@H]4CCOC4)C[C@@H]3C2)nn1 [Example 31, (3aR,5s,6aS)-N-(6-(5-fluoro-2-methylphenyl)-4-(trifluoromethyl)pyridazin-3-yl)-2-(((R)-tetrahydrofuran-3-yl)methyl)octahydro-cyclopenta[c]pyrrol-5-amine]	5	130
Cn1cc2cc(-c3cc(C(F)(F)F)c(N[C@H]4C[C@@H]5CN(C[C@@H]6CCOC6)C[C@@H]5C4)nn3)ccc2n1 [Example 32, (3aR,5s,6aS)-N-(6-(2-methyl-2H-indazol-5-yl)-4-(trifluoro-methyl)pyridazin-3-yl)-2-(((S)-tetrahydrofuran-3-yl)methyl)octahydro-cyclopenta[c]pyrrol-5-amine]	6	162
